Test results from paper PMC10747599 (Viruses, 2023).

What was measured:
[1] = test system: SLEV infection in Vero CCL81 cells; assay type: cell-based, St. Louis encephalitis virus (SLEV BeH 355964); conditions: 20 µM
[2] = test system: SLEV infection in Vero CCL81 cells; assay: microbe, parasite or virus in culture; assay type: cell-based, St. Louis encephalitis virus (SLEV BeH 355964); conditions: for EC50: St. Louis encephalitis virus, 72 h
Huh-7 cells = assay: MTT cell viability assay, Huh-7; conditions: Huh-7, 48 h; for loss/reduction in cell viability vs vehicle-treated cells: 20 µM
HBEC-5i cells = assay: MTT cell viability assay, HBEC-5i; conditions: HBEC-5i; for reduction in cell viability / toxicity: 20 µM, 48 h; for toxicity at lower concentrations: 20 µM to 2.5 µM, MOI 0.1, 48 h (Figure 5)
Vero CCL81 cells [3] = assay: MTT cell viability assay, Vero CCL81
[4] = Confirmatory dose-response assay, cytotoxicity (CC50); conditions: African green monkey, Vero CCL81 cells
Vero CCL81 cells [5] = assay: as above; conditions: Vero CCL81, dose-response 100 to 0.32 µM
SLEV [6] = assay: Viral load by plaque-forming assay, SLEV-infected Vero CCL81; assay type: cell-based, St. Louis encephalitis virus (SLEV BeH 355964); conditions: Vero CCL81, MOI 0.1
SLEV [7] = assay: Viral load by plaque-forming assay, SLEV-infected HBEC-5i; assay type: cell-based, St. Louis encephalitis virus (SLEV BeH 355964)
SLEV [8] = assay: Viral load by plaque-forming assay, SLEV-infected Huh-7; assay type: cell-based, St. Louis encephalitis virus (SLEV BeH 355964); conditions: Huh-7, MOI 0.1, 48 h
[9] = MTT cell viability assay, HBEC-5i; conditions: human, HBEC-5i cells

Structure (SMILES)	inhibition of SLEV-induced CPE (hit call, cytoprotective effect) [1]	EC50 [2]	loss/reduction in cell viability vs vehicle-treated cells (Huh-7 cells)	reduction in cell viability / toxicity (HBEC-5i cells)	CC50 at 72 h [4]	CC50 (Vero CCL81 cells [5])	reduction in viral titers in culture supernatant (SLEV [7]; 20 µM, MOI 0.1, 48 h)	other results
FC(F)(F)c1ccc(CNc2ccc(Cc3c[nH]c4ncc(Cl)cc34)cn2)cn1 [Pexidartanib]	cytoprotective effect	–	–	–	–	–	–	–
CC[C@@H]([C@H](C)O)n1ncn(-c2ccc(N3CCN(c4ccc(OC[C@@H]5CO[C@@](Cn6cncn6)(c6ccc(F)cc6F)C5)cc4)CC3)cc2)c1=O [Posaconazole]	cytoprotective effect	0.4 µM	50%	approximately 70%	> 100 µM	least cytotoxic	–	Selectivity Index (SI, CC50/EC50 ratio) ([2]; Vero CCL81): ≥ 12; reduction in cell viability (Vero CCL81 cells [3]; 20 µM, Vero CCL81, vs non-treated controls): 40%
C[C@@H]1CCCN1CCc1cc2cc(-c3ccc(C#N)cc3)ccc2o1 [ABT-239, 4-(2-{2-[(2R)-2-Methylpyrrolidinyl]ethyl}-benzofuran-5-yl)benzonitrile]	cytoprotective effect	3.4 µM	approx. 10%	not toxic	80.2 µM	–	approx. 10 fold	reduction in viral load relative to vehicle-treated controls (SLEV [6]; 20 µM): approximately 10 fold
NCCc1cn(S(=O)(=O)c2c(Cl)nc3sccn23)c2ccccc12 [SAX-187]	cytoprotective effect	–	–	–	–	–	–	–
C[C@@]1(O)[C@H](O)[C@@H](CO)O[C@H]1n1ccc2c(N)ncnc21 [7DMA, 7-deaza-2′-C-methyl-D-adenosine]	–	5.1 µM	–	–	> 100 µM	least cytotoxic	–	reduction in viral load relative to vehicle-treated controls (SLEV [6]; 40 µM (7DMA)): approximately 10 fold; reduction in viral load (SLEV [8]; 40 µM (7DMA)): 10 fold; reduction in cell viability vs vehicle-treated cells (Huh-7 cells; 40 µM (7DMA)): approx. 10%; reduction in cell viability (Vero CCL81 cells [3]; 40 µM (7DMA), Vero CCL81): less than 10%
COc1cccc(-c2ccc(NC(=O)C3=C(C(=O)O)CCC3)c(F)c2)c1 [Vidofludimus]	cytoprotective effect	8.2 µM	approx. 10%	–	> 100 µM	least cytotoxic	No antiviral activity	reduction in viral load relative to vehicle-treated controls (SLEV [6]; 20 µM): approximately 10 fold; viability at 48 h, 20 µM [9]: ≤ 90%
CCN(CC)CCOc1ccc(C(O)(Cc2ccc(Cl)cc2)c2ccc(C)cc2)cc1 (stereo not shown) [Triparanol]	cytoprotective effect	0.9 µM	90%	~60%	18.5 µM	–	–	antiviral effect (viral load) (SLEV [7]; 2.5 µM, MOI 0.1, 48 h (Figure 5)): lost; antiviral effect (viral load) (SLEV [7]; 5 µM, MOI 0.1, 48 h (Figure 5)): lost; reduction in viral load vs vehicle-treated infected group (SLEV [7]; 10 µM, MOI 0.1, 48 h (Figure 5)): over 10 fold; toxicity at lower concentrations (HBEC-5i cells): not toxic
CCCCc1oc2ccccc2c1C(=O)c1cc(I)c(OCCN(CC)CC)c(I)c1 [Amiodarone]	cytoprotective effect	–	approx. 10%	–	–	–	over 10 fold	reduction in viral load (SLEV [8]; 20 µM): not significant
OCCN1CCN(CCCN2c3ccccc3Sc3ccc(C(F)(F)F)cc32)CC1 [Fluphenazine]	cytoprotective effect	–	90%	not toxic	30.2 µM	–	> 100 fold	reduction in viral load (SLEV [7]; 20 µM, MOI 0.1, 48 h, concentration series (Figure 5)): over 50 fold; toxicity at lower concentrations (HBEC-5i cells): not toxic
